In patent publication US12421206B2, “Aryl-n-aryl derivatives for treating a RNA virus infection” (ABIVAX, priority 2018, dated 2025):
pEC50: −log10 of the molar value.

The molecules below were run on RSV A2 (assay: RSV inhibition (cytopathic effect inhibition) using Viral ToxGlo assay in HEp-2 cells). Conditions: human respiratory syncytial virus, RSV A2, MOI 0.5, HEp-2 cells, 72 h p.i.
Assay type: cell-based
Protocol: Protocol for Screening Antiviral Compounds for RSV Inhibition and Cytotoxicity Using Viral ToxGlo Assay
HEp-2 cells were maintained in Eagle's minimum essential medium (EMEM) with Earle's BSS adjusted to contain 2 mM L-glutamine, 10% fetal bovine serum, 100 U/ml penicillin and 100 μg/ml streptomycin. For the purposes of the screening assay they were grown to 90% confluency, trypsinized and recovered. The trypsin was neutralised with cell culture media and cells were centrifuged at 150×g for 5 minutes before discarding the supernatant and resuspending cell pellet in assay media (EMEM with Earle's BSS adjusted to contain 2 mM L-glutamine, 2% fetal bovine serum and 100 U/ml penicillin and 100 μg/ml streptomycin). The cells were seeded into white clear-bottomed cell culture plates at a density of 1.5×10^4 cells/well in 50 μl and 4×10^3 cells/well in 25 μl for 96 well plates and 384 well plates respectively. For the media/background control column assay media only was added. Cell plates were placed in a humid chamber and incubated overnight at 37° C./5% CO2. After overnight incubation cells were checked for confluency and healthy appearance.
Test articles were made up at 10× test concentration in a maximum DMSO concentration of 10% (final assay concentration maximal 1% DMSO) and added to the cell plates in volumes of 10 μl for 96 well plates and 5 μl for 384 well plates. For cell control and virus control wells the test article solvent only was added. Virus or assay media for cytotoxicity test wells and media/cell control wells was added immediately after test articles at an MOI of 0.5, 40 or 20 μl for 96 and 384 well plates respectively. Virus suspension was prepared by thawing RSV A2 frozen stocks and diluting to the required concentration of plaque forming units in assay media on ice.
Cell plates were further incubated inside a humid chamber for 72 h p.i at 37° C./5% CO2. After the incubation period cells were observed under the microscope to check for characteristic cytopathic effect in virus control wells and healthy cells in the cell control wells. After plates were adjusted to room temperature 20/40 μl Viral ToxGlo (Promega) was added to each well of the 384/96 well cell plates. Plates were incubated at room temperature, protected from light on a plate rocker for 20 minutes before measuring the luminescence on a spectrophotometer (Biotek Synergy HTX).
RSV inhibition was calculated as percentage of cytopathic effect inhibition relative to the virus control and cytotoxicity as percentage of cell survival relative to cell control wells. This allowed EC50 values to be calculated for each test article where a virus inhibition or cytotoxic dose response was identified.
Molecule `O=C(NCCC1CCCC1)c1cccc(Nc2ccc(OCc3ccccn3)cc2C2CC2)c1` [Compound 60, N-(2-cyclopentylethyl)-3-((2-cyclopropyl-4-(pyridin-2-ylmethoxy)phenyl)amino)benzamide] has a pEC50 of 7.17. `Cc1cc(OCc2ccccn2)ccc1Nc1cccc(C(=O)NCCCC(C)C)c1` [Compound 72, 3-((2-methyl-4-(pyridin-2-ylmethoxy)phenyl)amino)-N-(4-methylpentyl)benzamide] was tested, and the pEC50 was 6.80. For `CCc1cc(OCc2ccccn2)ccc1Nc1cccc(C(=O)NCCC2CCCCC2)c1` [Compound 75, N-(2-(cyclohexyl)ethyl)-3-((2-ethyl-4-(pyridin-2-ylmethoxy)phenyl)amino)benzamide], the pEC50 was 7.60. In the case of `O=C(NCCC1CCCCC1)c1cccc(Nc2ccc(OCc3ccccn3)cc2C2CC2)c1` [Compound 76, N-(2-(cyclohexyl)ethyl)-3-((2-cyclopropyl-4-(pyridin-2-ylmethoxy)phenyl)amino)benzamide], the pEC50 was 7.85. With `CCCC(C)NC(=O)c1cccc(Nc2ccc(OCc3ccccn3)cc2C)c1` (stereo not shown) [Compound 77, N-(1-methylbutyl)-3-((2-methyl-4-(pyridin-2-ylmethoxy)phenyl)amino)benzamide] the pEC50 was 6.91. `CCCC(C)NC(=O)c1cccc(Nc2ccc(OCc3ccccn3)cc2CC)c1` (stereo not shown) [Compound 78, N-(1-methylbutyl)-3-((2-ethyl-4-(pyridin-2-ylmethoxy)phenyl)amino)benzamide] showed a pEC50 of 7.24. In the case of `O=S(=O)(NCCC1CCCCC1)c1cccc(Nc2ccc(OCc3ccccn3)cc2C2CC2)c1` [Compound 79, N-(2-(cyclohexyl)ethyl)-3-((2-cyclopropyl-4-(pyridin-2-ylmethoxy)phenyl)amino)benzenesulfonamide], the pEC50 was 7.48. `O=C(CCC1CCCCC1)Nc1cccc(Nc2ccc(OCc3ccccn3)cc2C2CC2)c1` [Compound 80, (3-(cyclohexyl)propanamide), N-[3-([2-cyclopropyl-4-(pyridin-2-ylmethoxy)phenyl]amino)phenyl]-] gave a pEC50 of 7.68. In the case of `c1ccc(COc2ccc(Nc3cccc(OCCCC4CCCCC4)c3)c(C3CC3)c2)nc1` [Compound 83, 3-(3-cyclohexylpropoxy)-N-(2-cyclopropyl-4-(pyridin-2-ylmethoxy)phenyl)aniline], the pEC50 was 8.05. With `NC(=O)c1cccc(Nc2ccc(OCc3ccccn3)cc2C2CC2)c1` [Compound 84, 3-((2-cyclopropyl-4-(pyridin-2-ylmethoxy)phenyl)amino)benzamide] the pEC50 was 6.20. `O=C(NCCC1CCCCC1)c1cccc(Nc2ccc(OCc3cccnc3)cc2C2CC2)c1` [Compound 85, N-(2-cyclohexylethyl)-3-((2-cyclopropyl-4-(pyridin-3-ylmethoxy)phenyl)amino)benzamide] showed a pEC50 of 8.10. `O=C(NCCC1CCCCC1)c1cccc(Nc2ccc(OCc3ccccn3)cc2C2CC2)n1` [Compound 86, N-(2-cyclohexylethyl)-6-((2-cyclopropyl-4-(pyridin-2-ylmethoxy)phenyl)amino)picolinamide] was tested, and the pEC50 was 6.25. `O=C(NCCC1CCCCC1)c1cncc(Nc2ccc(OCc3ccccn3)cc2C2CC2)c1` [Compound 88, N-(2-cyclohexylethyl)-5-((2-cyclopropyl-4-(pyridin-2-ylmethoxy)phenyl)amino)nicotinamide] gave a pEC50 of 6.34. `O=C(NCCC1CCCC1)c1cccc(Nc2ccc(OCc3ccncc3)cc2C2CC2)c1` [Compound 89, N-(2-cyclopentylethyl)-3-((2-cyclopropyl-4-(pyridin-4-ylmethoxy)phenyl)amino)benzamide] gave a pEC50 of 6.85. `O=C(NCCC1CCCCC1)c1ccnc(Nc2ccc(OCc3ccccn3)cc2C2CC2)c1` [Compound 90, N-(2-cyclohexylethyl)-2-((2-cyclopropyl-4-(pyridin-2-ylmethoxy)phenyl)amino)isonicotinamide] showed a pEC50 of 7.04. With `CC(C)(C)c1cc(OCc2ccccc2)ccc1Nc1cccc(NC(=O)CCC2CCCCC2)c1` [Compound 91, N-(3-{[4-(benzyloxy)-2-tert-butylphenyl]amino}phenyl)-3-cyclohexylpropanamide] the pEC50 was 8.70. `O=C(CCC1CCCCC1)Nc1cccc(Nc2ccc(OCc3ccccc3)cc2C2=CCCC2)c1` [Compound 92, N-(3-{[4-(benzyloxy)-2-(cyclopent-1-en-1-yl)phenyl]amino}phenyl)-3-cyclohexylpropanamide] was tested, and the pEC50 was 8.40. For `O=C(CCC1CCCCC1)Nc1cccc(Nc2ccc(OCc3ccccc3)cc2C2CCCC2)c1` [Compound 93, N-(3-{[4-(benzyloxy)-2-cyclopentylphenyl]amino}phenyl)-3-cyclohexylpropanamide], the pEC50 was 8.40. Work on `CSc1cc(OCc2ccccc2)ccc1Nc1cccc(NC(=O)CCC2CCCCC2)c1` [Compound 94, N-(3-{[4-(benzyloxy)-2-(methylsulfanyl)phenyl]amino}phenyl)-3-cyclohexylpropanamide] yielded a pEC50 of 8.15. In the case of `c1ccc(COc2ccc(Nc3cccc(NCCCC4CCCCC4)c3)c(C3CC3)c2)cc1` [Compound 95, N1-[4-(benzyloxy)-2-cyclopropylphenyl]-N3-(3-cyclohexylpropyl)benzene-1,3-diamine], the pEC50 was 8.10. `O=C(NCCC1CCCCC1)Nc1cccc(Nc2ccc(OCc3ccccn3)cc2C2CC2)c1` [Compound 96, 1-(2-cyclohexylethyl)-3-[3-({2-cyclopropyl-4-[(pyridin-2-yl)methoxy]phenyl}amino)phenyl]urea] was tested, and the pEC50 was 8.00. Molecule `OC(CCCC1CCCCC1)c1cccc(Nc2ccc(OCc3ccccc3)cc2C2CC2)c1` (stereo not shown) [Compound 97, 1-(3-{[4-(benzyloxy)-2-cyclopropylphenyl]amino}phenyl)-4-cyclohexylbutan-1-ol] has a pEC50 of 8.00. Molecule `O=C(CCC1CCCCC1)Nc1cccc(Nc2ccc(OCc3ccc(F)cc3)cc2C(F)(F)F)c1` [Compound 99, 3-cyclohexyl-N-[3-({4-[(4-fluorophenyl)methoxy]-2-(trifluoromethyl)phenyl}amino)phenyl]propanamide] has a pEC50 of 7.89. `c1ccc(COc2ccc(Nc3cccc(-n4cc(CC5CCCCC5)nn4)c3)c(C3CC3)c2)nc1` [Compound 100, N-{3-[4-(cyclohexylmethyl)-1H-1,2,3-triazol-1-yl]phenyl}-2-cyclopropyl-4-[(pyridin-2-yl)methoxy]aniline] was tested, and the pEC50 was 7.80. With `CC(C)(C)c1cc(OCc2ccccc2)ccc1Nc1ccccc1C(=O)NCCC1CCCCC1` [Compound 101, 2-{[4-(benzyloxy)-2-tert-butylphenyl]amino}-N-(2-cyclohexylethyl)benzamide] the pEC50 was 7.68. Molecule `Cc1c(NC(=O)C2(C#N)CC2)cccc1Nc1ccc(OCc2ccccn2)cc1C1CC1` [Compound 102, 1-cyano-N-[3-({2-cyclopropyl-4-[(pyridin-2-yl)methoxy]phenyl}amino)-2-methylphenyl]cyclopropane-1-carboxamide] has a pEC50 of 7.66. With `O=C(NCCCC1CCCCC1)c1ccccc1Nc1ccc(OCc2ccccc2)cc1C1CC1` [Compound 103, 2-{[4-(benzyloxy)-2-cyclopropylphenyl]amino}-N-(3-cyclohexylpropyl)benzamide] the pEC50 was 7.62. Molecule `O=C(NCCC1CCCC1)c1cccc(Nc2ccc(OCc3ccccc3)cc2C(F)(F)F)c1` [Compound 104, 3-{[4-(benzyloxy)-2-(trifluoromethyl)phenyl]amino}-N-(2-cyclopentylethyl)benzamide] has a pEC50 of 7.54. In the case of `Cc1c(Nc2ccc(OCc3ccccc3)cc2C2CC2)cccc1OCCCC1CCCCC1` [Compound 105, 4-(benzyloxy)-N-[3-(3-cyclohexylpropoxy)-2-methylphenyl]-2-cyclopropylaniline], the pEC50 was 7.51. Work on `CC(C)CCCOc1cccc(Nc2ccc(OCc3ccccn3)cc2C2CC2)c1` [Compound 106, 2-cyclopropyl-N-{3-[(4-methylpentyl)oxy]phenyl}-4-[(pyridin-2-yl)methoxy]aniline] yielded a pEC50 of 7.48. For `CS(=O)(=O)c1cc(OCc2ccccc2)ccc1Nc1cccc(NC(=O)CCC2CCCCC2)c1` [Compound 107, N-(3-{[4-(benzyloxy)-2-methanesulfonylphenyl]amino}phenyl)-3-cyclohexylpropanamide], the pEC50 was 7.44. For `Cc1c(NC(=O)C2(C(N)=O)CC2)cccc1Nc1ccc(OCc2ccccn2)cc1C1CC1` [Compound 108, N′1-[3-({2-cyclopropyl-4-[(pyridin-2-yl)methoxy]phenyl}amino)-2-methylphenyl]cyclopropane-1,1-dicarboxamide], the pEC50 was 7.39. For `Cc1c(Nc2ccc(OCc3ccccn3)cc2C2CC2)cccc1OP(=O)(O)O` [Compound 109, [3-({2-cyclopropyl-4-[(pyridin-2-yl)methoxy]phenyl}amino)-2-methylphenoxy]phosphonic acid], the pEC50 was 7.32. With `O=C(NCC1CCCCC1)c1ccccc1Nc1ccc(OCc2ccccc2)cc1C1CC1` [Compound 110, 2-{[4-(benzyloxy)-2-cyclopropylphenyl]amino}-N-(cyclohexylmethyl)benzamide] the pEC50 was 7.23.
